Experimental data as given in article PMC9225715, “Development of PD3 and PD3-B for PDEδ inhibition to modulate KRAS activity” (Journal of Enzyme Inhibition and Medicinal Chemistry, 2022).

Columns and labels:
PDEδ [1] = target: T1, PDEδ (Homo sapiens, UniProt O43924); assay: FP-based competition binding assay using excess deltarasin
T1 construct: made in house; host or cells: E. coli BL21(DE3)
Description: (§1) Figure 3. Binding affinities of PDs measured by fluorescence polarisation. (A) Representative binding curve of PDs (PD3) titrated with PDEδ. The FP value was measured in PBS buffer (pH 7.2) containing 8 concentrations (0, 0.5, 1, 2, 4, 8, 16 and 32 μM) of PDEδ mixed with 0.5 μM PDs. Ex: 440 nm, Em: 526 nm; (B) Kd value and half-life of each compound; (C, D) Kinetic trace of PD3 and PD7 in the competition assay. PD3 was shown as a compound with the longest retention time (slow dissociation), whereas PD7 was shown as a compound with the shortest retention time (fast dissociation). The half-life was obtained by a competition binding assay using excess deltarasin. The optimal concentration of PDEδ for the competition assay was determined using the Kd value and PD concentration (0.5 μM) for making more than 68% of the binding complex. Ex: 430 nm, Em: 520 nm. TEXT PRINTED IN THE PICTURE: (A) PD3: Best-fit values Bmax: 261.7; Best-fit values Kd: 0.4991; Std. Error Bmax: 17.98; Std. […] Error Bmax 17.98 (last digit 8 or 6) and Std. Error Kd 0.1956 (5 and 6 not certain) / Panels C and D: k and half-life are printed without a label of their own; assigned to PD3 and PD7 from the panel legends (PDEδ+PD3+Del, PDEδ+PD7+Del)
To confirm that the PD compound occupies the same farnesylation binding site as deltarasin in PDEδ and to exclude the possibility that the FP signal resulted from non-specific hydrophobic interactions, we carried out a FP-based competition assay. PDs (0.5 µM) were incubated with the purified PDEδ protein for 2 h to ensure complete binding between the compound and the protein. Then, deltarasin was added to replace the PD compound in the prenyl binding pocket of PDEδ, which decreased the FP due to the free rotation of the released PD compound. As shown in Figure 3(B), the reverse correlation between Kd values and half-lives was observed (Figure 3(B) and Table 1). […] The rate constants and half-lives were measured only when the increased concentration of deltarasin produced concentration-independent kinetic parameters, which reflects complete displacement of the binding site with the deltarasin. The kinetic trace was fit to a single exponential decay to generate the dissociation rate constant and half-life. Given that the Kd value is a ratio of koff/kon in a simple bimolecular binding model, the measured half-life and Kd are not always matched due to the contribution from the association rate constant. Figure 3(C) (PD3) and 3 D (PD7) show a representative kinetic trace obtained in the competition assay.
Deltarasin, a well-known PDEδ inhibitor, was purchased from Chemietek (Indianapolis, IN) for the competition assay. Assay buffer and the plate were the same as used in fluorescence polarisation assay. The optimal concentration of PDEδ was determined based on the Kd values and ligand concentration (0.5 µM) to ensure the formation of ligand-protein complex. The mixture of PDEδ and compounds were incubated for 2 h at 4 °C. After adding deltarasin to the mixture, FP was immediately recorded by SpectraMax M5 microplate reader (Molecular Devices, San Jose, CA) with excitation at 430 nm and emission at 520 nm. In SpectraMax M5 microplate reader, single excitation and emission wavelengths need to be used for testing all compounds. Therefore, Ex 430/Em 520 was used for competition binding assay. The selected ex/em wavelengths have only a difference of less than 10 nm from the maximum wavelengths, and there was no critical issue for conducting assay. The kinetic trace was fit to a single exponential decay to generate dissociation rate constant and half-life.

PDEδ [2] = target: T1, PDEδ; assay: Fluorescence polarisation (FP)-based binding assay; conditions: 0.5 µM PD titrated with PDEδ, PBS pH 7.2; mean ± SD of three independent experiments; read-out: Kd value
Description: To evaluate the binding affinities of PDs to PDEδ, we also carried out a fluorescence polarisation (FP)-based binding assay after incubation of PDs with PDEδ. […] In the presence of 0.5 µM PD compounds, the polarisation value (mP value) increased following treatment with purified PDEδ in a dose-dependent manner until treatment with excess PDEδ induced saturation of binding. Among the tested compounds, 8 compounds were selected for further evaluation and SAR analysis. The binding curves for the selected 8 compounds are shown with their Kd values in Supplemental Figure S3.
as §1
PDEδ was diluted to make a series of two-fold dilutions with a starting concentration of 32 µM. The diluted solution was mixed with PBS buffer [137 mM NaCl, 2.7 mM KCl, 10 mM Na2HPO4, 2 mM KH2PO4 (pH 7.2)] and then the mixture was loaded on a 96 well black plate (SPL life Science, Gyeonggi-do, Republic of Korea). Compounds were transferred to the wells of assay plate and the final concentration of compounds was fixed to 0.5 µM. After the addition of the compound, the assay plates were incubated for 2 h at 4 °C. FP values were detected by SpectraMax M5 microplate reader (Molecular Devices, San Jose, CA) at the maximum absorption and emission wavelengths of PD compounds in assay buffer. Kd values were determined by previously reported method.

PDEδ [3] = target: T1, PDEδ; assay: Fluorescence measurement after incubation with recombinant PDEδ; type: binding; conditions: 2 µM PD + 2 µM PDEδ, 20 mM Tris buffer pH 7.5, Ex 280 nm
Description: With the structural rationale for the binding to PDEδ from the molecular docking studies, we measured the fluorescence responses of the PDs after incubation with recombinant PDEδ proteins to confirm the binding of PDs to PDEδ. We envisioned that the hydrophobic environment of the prenyl binding pocket of PDEδ, as depicted in Figure 1(C), could enhance the fluorescent signal due to the solvatochromic characteristics of IQ scaffold. In addition, tryptophan residues near the binding site of PDEδ and the fluorophore of PDs could act as a fluorescence resonance energy transfer (FRET) pair. […] All recoded spectra of PDs are depicted in Supplemental Figure S1. To compare the binding abilities of PD derivatives to the target protein, same concentration (2 µM) of PD compound was treated and then fluorescence intensity was measured in Spectrofluorometer FP-6500.
The fluorescence changes were measured to determine the interaction between PD compounds and PDEδ protein. The fluorescence spectra were obtained under Tris buffer [20 mM Tris-HCl (pH 7.5), 100 mM NaCl] at 20 °C. The concentration of PDEδ was 2 µM. After the addition of 2 µM PD compound, the mixture was gently inverted 3 times and then incubated for 1 min. The emission spectra were recorded on Spectrofluorometer FP-6500 (JASCO, Tokyo, Japan) at Ex 280 nm. The band width was 3 nm for excitation and 5 nm for emission.

PANC-1 cells = assay: Immunofluorescence staining of RAS localisation; type: cell-based, human; conditions: 18 h, anti-pan RAS antibody, PD3 10 µM, deltarasin 2, 5, 10 µM
From the text: Finally, we investigated whether PD3 changes KRAS localisation by inhibiting the interaction of KRAS with PDEδ in human pancreatic cancer cells. PDEδ binds the farnesylated RAS proteins and stabilises them[19]. Therefore, PDEδ activity leads to the accumulation of RAS at the plasma membrane (PM); conversely, downmodulation of PDEδ enhances RAS diffusion in the cytoplasm. To confirm the effect of PD3 on the relocalization of RAS, we carried out immunofluorescence staining of PANC-1 cells with an anti-RAS antibody (Figure 6). […] Conversely, in the DMSO-treated control group, RAS was mainly localised in the PM of PANC-1 cells. […] It is supposed that PD3 can induce changes in RAS localisation from the plasma membrane by interrupting the protein–protein interaction of KRAS-PDEδ.
Figure 6. Immunofluorescence of PANC-1 cells with an anti-Pan-RAS antibody (red). DMSO was used as a negative control, and deltarasin was used as a positive control. Ex: 633 nm, Em: ≥638 nm. The scale bar represents 20 µm.
PANC-1 cells were seeded with cover slip in a 6-well cell culture plate (SPL life Science, Gyeonggi-do, Republic of Korea) and incubated for 24 h under 37 °C and 5% CO2 prior to the experiment. […] The fluorescence images were detected by confocal microscope (TCS-SP8 confocal laser scanning microscope, Leica, Germany). Fluorescence signal was obtained by excitation at 633 nm and emission at ≥638 nm.

[4] = retention in PDEδ on displacement by excess deltarasin, 0.5 µM PD, mean ± SD of three independent experiments

Row | Compound | Half-life (PDEδ [1]; [4]) [min] | Kd (PDEδ [2]) [nM] | Half-life (PDEδ [1]; representative kinetic trace, single exponential decay) [min] | koff (PDEδ [1]; representative kinetic trace, single exponential decay, read-out: dissociation rate constant k (converted)) [s⁻¹] | Fluorescence response upon incubation with PDEδ (PDEδ [3]) | RAS localisation at the plasma membrane (PM) (PANC-1 cells)
1 | COc1ccc(-c2nc3ccccc3c3cc4ccccn4c23)cc1 [PD5] | 20 ± 4 | 720 ± 85 |  |  |  | 
2 | c1ccc2c(-c3nc4ccccc4c4cc5ccccn5c34)cccc2c1 [PD7] | 14 ± 1 | 1540 ± 180 | 13 | 0.0009 |  | 
3 | c1ccc2cc(-c3nc4ccccc4c4cc5ccccn5c34)ccc2c1 [PD8] | 35 ± 7 | 643 ± 128 |  |  |  | 
4 | COc1ccc(-c2nc3ccccc3c3cc4ccccn4c23)cc1OC [PD6] | 19 ± 3 | 1280 ± 261 |  |  | exceeded the maximum detection limit of Spectrofluorometer | 
5 | c1ccc(Cn2c(-c3ccc(OC[C@H](C4CCNCC4)n4c(-c5ccccc5)nc5ccccc54)cc3)nc3ccccc32)cc1 [deltarasin, reference compound] |  |  |  |  |  | reduced the amount of RAS at the PM

The remaining compounds from weak to strong by Kd (PDEδ [2]), led by results:

Row | Half-life (PDEδ [1]; [4]) [min] | Kd (PDEδ [2]) [nM] | Half-life (PDEδ [1]; representative kinetic trace, single exponential decay) [min] | koff (PDEδ [1]; representative kinetic trace, single exponential decay, read-out: dissociation rate constant k (converted)) [s⁻¹] | Compound | Fluorescence response upon incubation with PDEδ (PDEδ [3]) | RAS localisation at the plasma membrane (PM) (PANC-1 cells)
6 | 31 ± 9 | 505 ± 33 |  |  | c1ccc(-c2nc3ccccc3c3cc4ccccn4c23)cc1 [PD4] |  | 
7 | 26 ± 3 | 425 ± 75 |  |  | c1csc(-c2nc3ccccc3c3cc4ccccn4c23)c1 [PD25] |  | 
8 | 36 ± 2 | 284 ± 140 |  |  | Brc1ccc(-c2nc3ccccc3c3cc4ccccn4c23)cc1 [PD1] |  | 
